From PubChem BioAssay (NCI)
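All cell lines were grown in 96-well plates and treated with compound for 48 hours. GI50 = concentration required for 50% inhibition of growth. TGI: total growth inhibition.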

Key:
Test in all cases: NCI anticancer screen, dose series, 48 h
SNB-75 CNS = system: SNB-75 CNS
UACC-257 melanoma = system: UACC-257 melanoma
SF-268 CNS = system: SF-268 CNS
NCI-H460 lung = system: NCI-H460 lung
SK-OV-3 ovarian = system: SK-OV-3 ovarian
SW-620 colon = system: SW-620 colon
786-0 renal = system: 786-0 renal
HOP-92 NSCLC = system: HOP-92 NSCLC
OVCAR-3 ovarian = system: OVCAR-3 ovarian
BT-549 breast = system: BT-549 breast
HOP-62 NSCLC = system: HOP-62 NSCLC
SK-MEL-5 melanoma = system: SK-MEL-5 melanoma
LOX IMVI melanoma = system: LOX IMVI melanoma
SNB-19 CNS = system: SNB-19 CNS
OVCAR-5 ovarian = system: OVCAR-5 ovarian
RPMI-8226 leukemia = system: RPMI-8226 leukemia
OVCAR-4 ovarian = system: OVCAR-4 ovarian
NCI/ADR-RES ovarian = system: NCI/ADR-RES ovarian
SR leukemia = system: SR leukemia
NCI-H23 lung = system: NCI-H23 lung
T-47D breast = system: T-47D breast
NCI-H522 lung = system: NCI-H522 lung
OVCAR-8 ovarian = system: OVCAR-8 ovarian
TK-10 renal = system: TK-10 renal
MDA-MB-435 = system: MDA-MB-435
CAKI-1 renal = system: CAKI-1 renal
HCT-116 colon = system: HCT-116 colon
IGROV1 ovarian = system: IGROV1 ovarian
MCF7 breast = system: MCF7 breast
MOLT-4 leukemia = system: MOLT-4 leukemia
NCI-H226 lung = system: NCI-H226 lung
UACC-62 melanoma = system: UACC-62 melanoma
MALME-3M melanoma = system: MALME-3M melanoma
RXF 393 renal = system: RXF 393 renal
KM12 colon = system: KM12 colon
PC-3 prostate = system: PC-3 prostate
SF-295 CNS = system: SF-295 CNS
A498 renal = system: A498 renal
U251 CNS = system: U251 CNS
M14 melanoma = system: M14 melanoma
DU-145 prostate = system: DU-145 prostate
COLO 205 colon = system: COLO 205 colon
HL-60(TB) leukemia = system: HL-60(TB) leukemia
SK-MEL-2 melanoma = system: SK-MEL-2 melanoma
HT29 colon = system: HT29 colon
A549 NSCLC = system: A549 NSCLC
SN12C renal = system: SN12C renal
SK-MEL-28 melanoma = system: SK-MEL-28 melanoma
K-562 leukemia = system: K-562 leukemia
UO-31 renal = system: UO-31 renal
MDA-MB-231 breast = system: MDA-MB-231 breast
HCC-2998 colon = system: HCC-2998 colon
HS 578T breast = system: HS 578T breast
ACHN renal = system: ACHN renal
CCRF-CEM leukemia = system: CCRF-CEM leukemia
SF-539 CNS = system: SF-539 CNS
EKVX NSCLC = system: EKVX NSCLC
HCT-15 colon = system: HCT-15 colon

CN(c1ccc(F)cc1)S(=O)(=O)c1ccc(-c2cnc(C3CC3)o2)cc1
GI50 (SNB-75 CNS): 12.4 nM
TGI (SNB-75 CNS): 25800 nM
GI50 (UACC-257 melanoma): 11100 nM
TGI (UACC-257 melanoma): 52600 nM
GI50 (SF-268 CNS): 1120 nM
TGI (SF-268 CNS): > 100000 nM
GI50 (NCI-H460 lung): 46.9 nM
TGI (NCI-H460 lung): 13300 nM
GI50 (SK-OV-3 ovarian): 2520 nM
TGI (SK-OV-3 ovarian): > 94600 nM
GI50 (SW-620 colon): 66.4 nM
TGI (SW-620 colon): > 100000 nM
GI50 (786-0 renal): 108 nM
TGI (786-0 renal): > 41700 nM
GI50 (HOP-92 NSCLC): 1210 nM
TGI (HOP-92 NSCLC): 11300 nM
GI50 (OVCAR-3 ovarian): 41.5 nM
TGI (OVCAR-3 ovarian): 15800 nM
GI50 (BT-549 breast): 410 nM
TGI (BT-549 breast): 14100 nM
GI50 (HOP-62 NSCLC): 145 nM
TGI (HOP-62 NSCLC): > 100000 nM
GI50 (SK-MEL-5 melanoma): 84.2 nM
TGI (SK-MEL-5 melanoma): 5920 nM
GI50 (LOX IMVI melanoma): 69 nM
TGI (LOX IMVI melanoma): 14100 nM
GI50 (SNB-19 CNS): 102 nM
TGI (SNB-19 CNS): > 100000 nM
GI50 (OVCAR-5 ovarian): 495 nM
TGI (OVCAR-5 ovarian): > 100000 nM
GI50 (RPMI-8226 leukemia): 60.6 nM
TGI (RPMI-8226 leukemia): 2510 nM
GI50 (OVCAR-4 ovarian): 772 nM
TGI (OVCAR-4 ovarian): > 100000 nM
GI50 (NCI/ADR-RES ovarian): 57.4 nM
TGI (NCI/ADR-RES ovarian): 21400 nM
GI50 (SR leukemia): 31.5 nM
GI50 (NCI-H23 lung): 358 nM
TGI (NCI-H23 lung): > 100000 nM
GI50 (T-47D breast): 75.9 nM
TGI (T-47D breast): 71300 nM
GI50 (NCI-H522 lung): 78.9 nM
TGI (NCI-H522 lung): 1700 nM
GI50 (OVCAR-8 ovarian): 553 nM
TGI (OVCAR-8 ovarian): > 100000 nM
GI50 (TK-10 renal): 26400 nM
TGI (TK-10 renal): > 100000 nM
GI50 (MDA-MB-435): 28.4 nM
TGI (MDA-MB-435): 94.8 nM
GI50 (CAKI-1 renal): 73.3 nM
TGI (CAKI-1 renal): > 100000 nM
GI50 (HCT-116 colon): 41.3 nM
GI50 (IGROV1 ovarian): 66 nM
TGI (IGROV1 ovarian): > 100000 nM
GI50 (MCF7 breast): 39.6 nM
TGI (MCF7 breast): 50900 nM
GI50 (MOLT-4 leukemia): 80.6 nM
TGI (MOLT-4 leukemia): > 37500 nM
GI50 (NCI-H226 lung): 239 nM
TGI (NCI-H226 lung): 30800 nM
GI50 (UACC-62 melanoma): 48.1 nM
TGI (UACC-62 melanoma): 19500 nM
GI50 (MALME-3M melanoma): 11600 nM
TGI (MALME-3M melanoma): 47600 nM
GI50 (RXF 393 renal): 69.8 nM
TGI (RXF 393 renal): 366 nM
GI50 (KM12 colon): 54.5 nM
TGI (KM12 colon): 32200 nM
GI50 (PC-3 prostate): 136 nM
TGI (PC-3 prostate): > 67800 nM
GI50 (SF-295 CNS): 52 nM
TGI (SF-295 CNS): 25100 nM
GI50 (A498 renal): 43 nM
TGI (A498 renal): 493 nM
GI50 (U251 CNS): 69.4 nM
TGI (U251 CNS): > 39100 nM
GI50 (M14 melanoma): 52 nM
TGI (M14 melanoma): 19800 nM
GI50 (DU-145 prostate): 279 nM
TGI (DU-145 prostate): > 76700 nM
GI50 (COLO 205 colon): 98.8 nM
TGI (COLO 205 colon): 2400 nM
GI50 (HL-60(TB) leukemia): 28.8 nM
TGI (HL-60(TB) leukemia): 306 nM
GI50 (SK-MEL-2 melanoma): 3740 nM
TGI (SK-MEL-2 melanoma): 40900 nM
GI50 (HT29 colon): 44.3 nM
TGI (HT29 colon): 14600 nM
GI50 (A549 NSCLC): 180 nM
TGI (A549 NSCLC): > 100000 nM
GI50 (SN12C renal): 887 nM
TGI (SN12C renal): 39100 nM
GI50 (SK-MEL-28 melanoma): 2600 nM
TGI (SK-MEL-28 melanoma): > 100000 nM
GI50 (K-562 leukemia): 39.5 nM
TGI (K-562 leukemia): > 43800 nM
GI50 (UO-31 renal): 766 nM
TGI (UO-31 renal): > 94100 nM
GI50 (MDA-MB-231 breast): 404 nM
TGI (MDA-MB-231 breast): > 39000 nM
GI50 (HCC-2998 colon): 375 nM
TGI (HCC-2998 colon): > 50100 nM
GI50 (HS 578T breast): 176 nM
TGI (HS 578T breast): > 100000 nM
GI50 (ACHN renal): 274 nM
TGI (ACHN renal): > 73100 nM
GI50 (CCRF-CEM leukemia): 51.8 nM
TGI (CCRF-CEM leukemia): > 100000 nM
GI50 (SF-539 CNS): 71.8 nM
TGI (SF-539 CNS): 1870 nM
GI50 (EKVX NSCLC): 289 nM
TGI (EKVX NSCLC): > 100000 nM
GI50 (HCT-15 colon): 49.9 nM
TGI (HCT-15 colon): > 50000 nM
